Reference: patent US6352958B1, “Cycloimido-substituted benzofused heterocyclic herbicides” (FMC Corporation, priority 1997, dated 2002)

How the values were obtained:
Format in all cases: in vivo
[1] = tested on: Johnsongrass (Sorghum halepense); test: Preemergence herbicidal activity, johnsongrass; settings: Rate of Application 0.3 Kg/Ha, examined after 12-17 days
[2] = tested on: field corn (Zea mays var. Pioneer 3732); test: Postemergence herbicidal activity, corn; settings: rate of application 0.3 Kg/Ha, rated after 12-17 days
[3] = tested on: soybean (Glycine max var. Winchester); test: Preemergence herbicidal activity, soybean; settings: Rate of Application 0.3 Kg/Ha, examined after 12-17 days
[4] = tested on: green foxtail (Setaria viridis); test: Preemergence herbicidal activity, green foxtail; settings: Rate of Application 0.3 Kg/Ha, examined after 12-17 days
[5] = tested on: blackgrass (Aloepecurus myosuroides); test: Preemergence herbicidal activity, blackgrass; settings: Rate of Application 0.3 Kg/Ha, examined after 12-17 days
[6] = tested on: common cocklebur (Xanthium strumarium L.); test: Postemergence herbicidal activity, cocklebur; settings: rate of application 0.3 Kg/Ha, rated after 12-17 days
[7] = tested on: wheat (Triticum aestivum var. Lew); test: Postemergence herbicidal activity, wheat; settings: rate of application 0.3 Kg/Ha, rated after 12-17 days
[8] = tested on: velvetleaf (Abutilon theophrasti); test: Preemergence herbicidal activity, velvetleaf; settings: Rate of Application 0.3 Kg/Ha, examined after 12-17 days
[9] = tested on: morningglory (Ipomea lacunosa or Ipomea hederacea); test: Preemergence herbicidal activity, morningglory; settings: Rate of Application 0.3 Kg/Ha, examined after 12-17 days
[10] = tested on: soybean (Glycine max var. Winchester); test: Postemergence herbicidal activity, soybean; settings: rate of application 0.3 Kg/Ha, rated after 12-17 days
[11] = tested on: blackgrass (Aloepecurus myosuroides); test: Postemergence herbicidal activity, blackgrass; settings: rate of application 0.3 Kg/Ha, rated after 12-17 days
Method: The benzofused heterocyclic compounds of this invention were tested for pre- and postemergence herbicidal activity using a variety of crops and weeds. The test plants included soybean (Glycine max var. Winchester), field corn (Zea mays var. Pioneer 3732), wheat (Triticum aestivum var. Lew), morningglory (Ipomea lacunosa or Ipomea hederacea), velvetleaf (Abutilon theophrasti), green foxtail (Setaria viridis), Johnsongrass (Sorghum halepense), blackgrass (Aloepecurus myosuroides), common chickweed (Stellaria media), and common cocklebur (Xanthium strumarium L.).
For preemergence testing, two disposable fiber flats (8 cm×15 cm×25 cm) for each rate of application of each candidate herbicide were filled to an approximate depth of 6.5 cm with steam-sterilized sandy loam soil. The soil was leveled and impressed with a template to provide five evenly spaced furrows 13 cm long and 0.5 cm deep in each flat. Seeds of soybean, wheat, corn, green foxtail, and johnsongrass were planted in the furrows of the first flat, and seeds of velvetleaf, morningglory, common chickweed, cocklebur, and blackgrass were planted in the furrows of the second flat. The five-row template was employed to firmly press the seeds into place. A topping soil of equal portions of sand and sandy loam soil was placed uniformly on top of each flat to a depth of approximately 0.5 cm. Flats for postemergence testing were prepared in the same manner except that they were planted 9-14 days prior to the preemergence flats and were placed in a greenhouse and watered, thus allowing the seeds to germinate and the foliage to develop.
In both pre- and postemergence tests, a stock solution of the candidate herbicide was prepared by dissolving 0.27 g of the compound in 20 mL of water/acetone (50/50) containing 0.5% v/v sorbitan monolaurate. For an application rate of 3000 g/ha of herbicide a 10 mL portion of the stock solution was diluted with water/acetone (50/50) to 45 mL.
The preemergence flats were initially subjected to a light water spray. The four flats were placed two by two along a conveyor belt (i.e., the two preemergence followed by the two postemergence flats). The conveyor belt fed under a spray nozzle mounted about ten inches above the post-emergent foliage. The preemergent flats were elevated on the belt so that the soil surface was at the same level below the spray nozzle as the foliage canopy of the postemergent plants. The spray of herbicidal solution was commenced and once stabilized, the flats were passed under the spray at a speed to receive a coverage equivalent of 100 L/ha. At this coverage the application rates are those shown in the above table for the individual herbicidal solutions. The preemergence flats were watered immediately thereafter, placed in the greenhouse and watered regularly at the soil surface. The postemergence flats were immediately placed in the green-house and not watered until 24 hours after treatment with the test solution. Thereafter they were regularly watered at ground level. After 12-17 days the plants were examined and the phytotoxicity data were recorded.
Phytotoxicity data were taken as percent control. Percent control was determined by a method similar to the 0 to 100 rating system disclosed in “Research Methods in Weed Science,” 2nd ed., B. Truelove, Ed.; Southern Weed Science Society; Auburn University, Auburn, Ala., 1977.

[12] = tested on: green foxtail (Setaria viridis); test: Postemergence herbicidal activity, green foxtail; settings: rate of application 0.3 Kg/Ha, rated after 12-17 days
[13] = tested on: Johnsongrass (Sorghum halepense); test: Postemergence herbicidal activity, johnsongrass; settings: rate of application 0.3 Kg/Ha, rated after 12-17 days
[14] = tested on: common cocklebur (Xanthium strumarium L.); test: Preemergence herbicidal activity, cocklebur; settings: Rate of Application 0.3 Kg/Ha, examined after 12-17 days
[15] = tested on: morningglory (Ipomea lacunosa or Ipomea hederacea); test: Postemergence herbicidal activity, morningglory; settings: rate of application 0.3 Kg/Ha, rated after 12-17 days
[16] = tested on: wheat (Triticum aestivum var. Lew); test: Preemergence herbicidal activity, wheat; settings: Rate of Application 0.3 Kg/Ha, examined after 12-17 days
[17] = tested on: field corn (Zea mays var. Pioneer 3732); test: Preemergence herbicidal activity, corn; settings: Rate of Application 0.3 Kg/Ha, examined after 12-17 days
[18] = tested on: velvetleaf (Abutilon theophrasti); test: Postemergence herbicidal activity, velvetleaf; settings: rate of application 0.3 Kg/Ha, rated after 12-17 days
[19] = tested on: common chickweed (Stellaria media); test: Preemergence herbicidal activity, chickweed; settings: Rate of Application 0.3 Kg/Ha, examined after 12-17 days

Row | SMILES | PREEMERGENCE HERBICIDAL ACTIVITY (% CONTROL) SORHA [1] | Postemergence herbicidal activity (% control) CRN [2] | PREEMERGENCE HERBICIDAL ACTIVITY (% CONTROL) SOY [3] | PREEMERGENCE HERBICIDAL ACTIVITY (% CONTROL) SETVI [4] | PREEMERGENCE HERBICIDAL ACTIVITY (% CONTROL) ALOMY [5] | Postemergence herbicidal activity (% control) XANPE [6] | Postemergence herbicidal activity (% control) WHT [7] | PREEMERGENCE HERBICIDAL ACTIVITY (% CONTROL) ABUTH [8] | PREEMERGENCE HERBICIDAL ACTIVITY (% CONTROL) IPOSS [9] | Postemergence herbicidal activity (% control) SOY [10] | Postemergence herbicidal activity (% control) ALOMY [11] | Postemergence herbicidal activity (% control) SETVI [12] | Postemergence herbicidal activity (% control) SORHA [13] | PREEMERGENCE HERBICIDAL ACTIVITY (% CONTROL) XANPE [14] | Postemergence herbicidal activity (% control) IPOSS [15] | PREEMERGENCE HERBICIDAL ACTIVITY (% CONTROL) WHT [16] | PREEMERGENCE HERBICIDAL ACTIVITY (% CONTROL) CRN [17] | Postemergence herbicidal activity (% control) ABUTH [18] | PREEMERGENCE HERBICIDAL ACTIVITY (% CONTROL) STEME [19]
1 | Cn1c(C(F)(F)F)cc(=O)n(-c2c(F)cc(Cl)c3nc(Cc4ccccc4Cl)[nH]c23)c1=O [Compound 381] | 80% | 95% | 100% | 100% | 90% | 100% | 40% | 100% | 100% | 95% | 100% | 100% | 100% | 100% | 100% | 40% | 80% | 100% | –
2 | CC(c1ccccc1)c1nc2c(Cl)cc(F)c(-n3c(=O)cc(C(F)(F)F)n(C)c3=O)c2[nH]1 (stereo not drawn) [Compound 377] | 100% | 100% | 100% | 100% | 100% | 100% | 80% | 100% | 100% | 95% | 100% | 100% | 100% | 100% | 100% | 70% | 90% | 100% | –
3 | Cn1c(C(F)(F)F)cc(=O)n(-c2c(F)cc(Cl)c3nc(Cc4ccc(Cl)cc4)[nH]c23)c1=O [Compound 383] | 55% | 95% | 80% | 75% | 80% | 100% | 40% | 100% | 60% | 95% | 60% | 95% | 70% | 70% | 95% | 40% | 20% | 100% | –
4 | CC(=O)OC(c1ccccc1)c1nc2c(-n3c(=O)cc(C(F)(F)F)n(C)c3=O)c(F)cc(Br)c2o1 (stereo not drawn) [Compound 103] | 70% | 80% | 50% | 100% | 90% | 80% | 50% | 100% | 100% | 90% | 70% | 100% | 60% | 70% | 80% | 50% | 80% | 100% | –
5 | C#CCOc1nc2c(-n3c(=O)cc(C(F)(F)F)n(C)c3=O)c(F)cc(Br)c2o1 [Compound 106] | 55% | 75% | 30% | 90% | 70% | – | 30% | 100% | 100% | 80% | 60% | 100% | 70% | 60% | 100% | 40% | 70% | 100% | 95%
